# Laboratory results: US20090036422A1 (priority 2007, published 2009)
# Counter-ions that a name gives are not always drawn.
# Target: T1, human orexin-2 (hOX2) receptor (Homo sapiens, UniProt O43614)
# T1 construct: expressed in transfected cells
# T1 sequence (O43614 1-444): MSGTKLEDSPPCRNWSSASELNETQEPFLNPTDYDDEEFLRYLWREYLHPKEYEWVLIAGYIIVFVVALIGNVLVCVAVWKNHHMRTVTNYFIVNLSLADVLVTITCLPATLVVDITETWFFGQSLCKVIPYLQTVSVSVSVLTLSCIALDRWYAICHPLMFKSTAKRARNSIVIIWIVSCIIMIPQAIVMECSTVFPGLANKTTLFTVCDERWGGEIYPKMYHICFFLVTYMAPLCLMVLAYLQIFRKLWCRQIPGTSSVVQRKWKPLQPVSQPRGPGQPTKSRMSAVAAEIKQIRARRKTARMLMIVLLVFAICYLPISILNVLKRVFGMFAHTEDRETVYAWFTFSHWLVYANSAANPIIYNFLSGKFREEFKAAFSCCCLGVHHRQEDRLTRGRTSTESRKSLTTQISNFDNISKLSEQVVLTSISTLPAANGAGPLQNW
# Experiment: Intracellular Ca2+ mobilization assay (FLIPR), CHO(dHFr-) cells expressing hOX2, orexin-A at EC80 as agonist
# Assay type: cell-based
# Settings: Kb=IC50/(1+[A]/EC50); CHO(dHFr-)-OX2R cells, antagonist applied 25 min before orexin-A EC80
# Procedure: Intracellular Ca^2+ Mobilization Assay
# The Chinese Hamster Ovary (dHFr−) mutant cell line stably expressing human orexin-1 (hOX1) or human orexin-2 (hOX2) receptors were maintained in Dulbecco's Modified Eagle Medium (1×) with GlutaMax™ 1, 4500 mg/L D-Glucose and Sodium Pyruvate (Catalog No. 31966-021, Invitrogen, Carlsbad, Calif.), 5% dialyzed fetal calf serum (Catalog No. 26400-044), 100 μg/ml penicillin and 100 μg/ml streptomycin. The cells were seeded at 5×10^4 cells/well in the poly-D-lysine treated, 96-well, black/clear-bottomed plates (Catalog No. BD356640, BD Biosciences, Palo Alto, Calif.). 24 h later, the cells were loaded for 1 h at 37° C. with 4 μM Flou-4 acetoxymethyl ester (Catalog No. F-14202, Molecular Probes, Eugene, Oreg.) in FLIPR buffer (1×HBSS, 20 mM HEPES, 2.5 mM Probenecid). Hanks' Balanced Salt Solution (HBSS) (10×) (catalog No. 14065-049) and HEPES (1M) (catalog No. 15630-056) were purchased from Invitrogen, Carlsbad, Calif. Probenecid (250 mM) (catalog No. P8761) was from Sigma, Buchs, Switzerland. The cells were washed five times with FLIPR buffer to remove excess dye and intracellular calcium mobilization, [Ca^2+]i were measured using a Fluorometric Imaging Plate Reader (FLIPR-96, Molecular Devices, Menlo Park, Calif.) as described previously (Malherbe et al., Mol. Pharmacol., 64, 823-832, 2003). Orexin A (catalog No. 1455, Toris Cookson Ltd, Bristol, UK) was used as agonist. Orexin A (50 mM stock solution in DMSO) was diluted in FLIPR buffer +0.1% BSA. The EC50 and EC80 values of orexin-A were measured daily from standard agonist concentration-response curves in CHO(dHFr−) —OX1R and —OX2R cell lines. All compounds were dissolved in 100% DMSO. Inhibition curves were determined by addition of 11 concentrations (0.0001-10 μM) of inhibitory compounds and using EC80 value of orexin-A as agonist (a concentration which gave 80% of max agonist response, determined daily). The antagonists were applied 25 min (incubation at 37° C.) before the application of the agonist. Responses were measured as peak increase in fluorescence minus basal, normalized to the maximal stimulatory effect induced by EC80 value of orexin-A or orexin-B. Inhibition curves were fitted according to the Hill equation: y=100/(1+(x/IC50)^nH), where nH=slope factor using Excel-fit 4 software (Microsoft).
# Kb values were calculated according to the following equation Kb=IC50/(1+[A]/EC50) where A is the concentration of agonist added which is very close to agonist EC80 value, and IC50 and EC50 values were derived from the antagonist inhibition and orexin-A or B agonist curves, respectively.
row,Structure (SMILES),Kb
1,"Cc1ccc(CCN(C(=O)C(NC(CO)C(C)C)c2ccccc2)c2ccc(C)c(C)c2)cc1 (stereo not shown) [Example 123, N-(3,4-Dimethyl-phenyl)-2-(1-hydroxymethyl-2-methyl-propylamino)-2-phenyl-N-(2-p-tolyl-ethyl)-acetamide]",0.0727 µM
2,"Cc1ccc(CCN(C(=O)C(NCC2OCCO2)c2ccccc2)c2ccc(C)c(C)c2)cc1 (stereo not shown) [Example 133, N-(3,4-Dimethyl-phenyl)-2-[([1,3]dioxolan-2-ylmethyl)-amino]-2-phenyl-N-(2-p-tolyl-ethyl)-acetamide]",0.007 µM
3,"COc1ccc(N(CCc2ccc(C(F)(F)F)cc2)C(=O)C(O)c2ccccc2F)cc1OC (stereo not shown) [Example 31, N-(3,4-dimethoxyphenyl)-2-(2-fluorophenyl)-2-hydroxy-N-{2-[4-(trifluoromethyl)phenyl]ethyl}acetamide]",0.0336 µM
4,"CCC(O)CNC(C(=O)N(CCc1ccc(C)cc1)c1ccc(C)c(C)c1)c1ccccc1 (stereo not shown) [Example 131, N-(3,4-Dimethyl-phenyl)-2-(2-hydroxy-butylamino)-2-phenyl-N-(2-p-tolyl-ethyl)-acetamide]",0.022 µM
5,"CCC(COC)NC(C(=O)N(CCc1ccc(C)cc1)c1ccc(C)c(C)c1)c1ccccc1 (stereo not shown) [Example 125, N-(3,4-Dimethyl-phenyl)-2-(1-methoxymethyl-propylamino)-2-phenyl-N-(2-p-tolyl-ethyl)-acetamide]",0.0267 µM
6,"C=COCCNC(C(=O)N(CCc1ccc(C)cc1)c1ccc(C)c(C)c1)c1ccccc1 (stereo not shown) [Example 135, N-(3,4-Dimethyl-phenyl)-2-phenyl-N-(2-p-tolyl-ethyl)-2-(2-vinyloxy-ethylamino)-acetamide]",0.0379 µM
7,"COc1ccc(N(CCc2ccc(C(F)(F)F)cc2)C(=O)C(N)c2ccccc2)cc1 (stereo not shown) [Example 75, 2-Amino-N-(4-methoxy-phenyl)-2-phenyl-N-[2-(4-trifluoromethyl-phenyl)-ethyl]-acetamide]",0.0523 µM
8,"COc1cccc(N(CCc2ccc(C(F)(F)F)cc2)C(=O)C(N)c2ccccc2)c1 (stereo not shown) [Example 60, 2-Amino-N-(3-methoxy-phenyl)-2-phenyl-N-[2-(4-trifluoromethyl-phenyl)-ethyl]-acetamide]",0.0231 µM
9,COc1ccccc1C(N)C(=O)N(CCc1ccc(C(F)(F)F)cc1)c1ccc2c(c1)OCO2 (stereo not shown) [Example 41],0.0505 µM
10,"CCOCCNC(C(=O)N(CCc1ccc(C)cc1)c1ccc(C)c(C)c1)c1ccccc1 (stereo not shown) [Example 136, N-(3,4-Dimethyl-phenyl)-2-(2-ethoxy-ethylamino)-2-phenyl-N-(2-p-tolyl-ethyl)-acetamide]",0.0201 µM
11,"Cc1ccc(N(CCc2ccc(C(F)(F)F)cc2)C(=O)C(N)c2ccccc2)cc1 (stereo not shown) [Example 69, 2-Amino-2-phenyl-N-p-tolyl-N-[2-(4-trifluoromethyl-phenyl)-ethyl]-acetamide]",0.0828 µM
12,"COc1ccc(N(CCc2ccc(C(F)(F)F)cc2)C(=O)C(N)c2ccccc2OC)cc1Cl (stereo not shown) [Example 43, 2-Amino-N-(3-chloro-4-methoxy-phenyl)-2-(2-methoxy-phenyl)-N-[2-(4-trifluoromethyl-phenyl)-ethyl]-acetamide]",0.0162 µM

# Continued, values first:
row,Kb,Structure (SMILES)
1,0.0143 µM,"Cc1ccc(N(CCc2ccc(Cl)c(F)c2)C(=O)[C@@H](N)c2ccccc2)cc1C [Example 200, (S)-2-Amino-N-[2-(4-chloro-3-fluoro-phenyl)-ethyl]-N-(3,4-dimethyl-phenyl)-2-phenyl-acetamide hydrochloride]"
2,0.0215 µM,"Cc1ccc(N(CCc2cccc(F)c2F)C(=O)[C@@H](N)c2ccccc2)cc1C [Example 191, (S)-2-Amino-N-[2-(2,3-difluoro-phenyl)-ethyl]-N-(3,4-dimethyl-phenyl)-2-phenyl-acetamide hydrochloride]"
3,0.0343 µM,"Cc1ccc(N(CCc2ccc(C#N)cc2)C(=O)[C@@H](N)c2ccccc2)cc1C [Example 212, (S)-2-Amino-N-[2-(4-cyano-phenyl)-ethyl]-N-(3,4-dimethyl-phenyl)-2-phenyl-acetamide hydrochloride]"
4,0.0364 µM,"NC(C(=O)N(CCc1ccc(C(F)(F)F)cc1)c1ccc2c(c1)CCCC2)c1ccccc1 (stereo not shown) [Example 137, 2-Amino-2-phenyl-N-(5,6,7,8-tetrahydro-naphthalen-2-yl)-N-[2-(4-trifluoromethyl-phenyl)-ethyl]-acetamide]"
5,0.0505 µM,"Cc1ccc(N(CCc2ccc(OC(F)(F)F)cc2)C(=O)[C@@H](N)c2ccccc2)cc1C [Example 176, (S)-2-Amino-N-(3,4-dimethyl-phenyl)-2-phenyl-N-[2-(4-trifluoromethoxy-phenyl)-ethyl]-acetamide]"
6,0.0489 µM,"Cc1ccc(N(CCc2ccccc2)C(=O)[C@@H](N)c2ccccc2)cc1C [Example 199, (S)-2-Amino-N-(3,4-dimethyl-phenyl)-N-phenethyl-2-phenyl-acetamide hydrochloride]"
7,0.049 µM,"CCc1ccc(N(CCc2ccc(F)cc2)C(=O)[C@@H](N)c2ccccc2)cc1 [Example 244, (S)-2-Amino-N-(4-ethyl-phenyl)-N-[2-(4-fluoro-phenyl)-ethyl]-2-phenyl-acetamide hydrochloride]"
8,0.051 µM,"Cc1ccc(N(CCc2ccc(C(F)(F)F)cc2)C(=O)[C@@H](N)c2ccc(F)cc2)cc1C [Example 154, (S)-2-Amino-N-(3,4-dimethyl-phenyl)-2-(4-fluoro-phenyl)-N-[2-(4-trifluoromethyl-phenyl)-ethyl]-acetamide]"
9,0.0469 µM,"Cc1ccc(N(CCc2cccc(O)c2)C(=O)[C@@H](N)c2ccccc2)cc1C [Example 206, (S)-2-Amino-N-(3,4-dimethyl-phenyl)-N-[2-(3-hydroxy-phenyl)-ethyl]-2-phenyl-acetamide hydrochloride]"
10,0.0908 µM,"Cc1ccc(N(CCc2ccc(C(F)(F)F)cc2)C(=O)[C@@H](O)c2ccc(F)cc2)cc1C [Example 161, (S)—N-(3,4-Dimethyl-phenyl)-2-(4-fluoro-phenyl)-2-hydroxy-N-[2-(4-trifluoromethyl-phenyl)-ethyl]-acetamide]"
11,0.0091 µM,"Cc1ccc(N(CCc2ccc(C)c(F)c2)C(=O)[C@@H](N)c2ccccc2)cc1C [Example 190, (S)-2-Amino-N-(3,4-dimethyl-phenyl)-N-[2-(3-fluoro-4-methyl-phenyl)-ethyl]-2-phenyl-acetamide hydrochloride]"
12,0.0127 µM,"CCOc1ccc(N(CCc2ccc(C(F)(F)F)cc2)C(=O)[C@@H](N)c2ccccc2)cc1OCC [Example 140, (S)-2-Amino-N-(3,4-diethoxy-phenyl)-2-phenyl-N-[2-(4-trifluoromethyl-phenyl)-ethyl]-acetamide]"
13,0.0222 µM,"Cc1ccc(N(CCc2c(F)cc(C(F)(F)F)c(F)c2F)C(=O)/C(=N/O)c2ccccc2)cc1C [Example 211, N-(3,4-Dimethyl-phenyl)-2-[hydroxyimino]-2-phenyl-N-[2-(2,3,6-trifluoro-4-trifluoromethyl-phenyl)-ethyl]-acetamide]"
14,0.0673 µM,"CCOc1ccc(N(CCc2ccc(C(F)(F)F)cc2)C(=O)[C@@H](N)c2ccc(F)cc2)cc1Cl [Example 165, (S)-2-Amino-N-(3-chloro-4-ethoxy-phenyl)-2-(4-fluoro-phenyl)-N-[2-(4-trifluoromethyl-phenyl)-ethyl]-acetamide]"
15,0.0178 µM,"Cc1ccc(N(CCc2cccc(Cl)c2F)C(=O)[C@@H](N)c2ccccc2)cc1C [Example 204, (S)-2-Amino-N-[2-(3-chloro-2-fluoro-phenyl)-ethyl]-N-(3,4-dimethyl-phenyl)-2-phenyl-acetamide hydrochloride]"
16,0.0555 µM,"Cc1ccc(N(CCc2ccc(C(F)(F)F)cc2)C(=O)C(=O)c2ccccc2)cc1C [Example 218, N-(3,4-Dimethyl-phenyl)-2-oxo-2-phenyl-N-[2-(4-trifluoromethyl-phenyl)-ethyl]-acetamide]"
